Our source for the Ki values is patent US9487513B2, “Substituted pyrazolo[1,5-A]pyridines, their preparation and use as medicaments” (LABORATORIOS DEL DR. ESTEVE S.A., priority 2012, dated 2016).

Where a name gives a salt, the structure may show the parent alone.

For this assay, the target named is T1, σ1-receptor (Cavia porcellus, UniProt Q60492).
T1 construct: Guinea pig brains were homogenized in 10 vols; (w/v) of Tris-HCl 50 mM 0.32 M sucrose; from tissue; host or cells: guinea pig brain membranes
T1 sequence (Q60492 whole entry): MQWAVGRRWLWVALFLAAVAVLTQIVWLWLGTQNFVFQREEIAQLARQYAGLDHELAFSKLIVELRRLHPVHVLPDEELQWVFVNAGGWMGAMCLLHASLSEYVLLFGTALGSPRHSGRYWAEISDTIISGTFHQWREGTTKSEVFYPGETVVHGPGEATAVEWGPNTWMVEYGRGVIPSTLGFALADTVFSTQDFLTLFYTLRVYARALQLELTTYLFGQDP
Nature of the assay: σ1-receptor binding assay, [3H]-(+)-pentazocine, guinea pig brain membranes. The following applies: radioligand [3H]-(+)-pentazocine at 5.0 nM; guinea pig brain membrane; 150 min at 37° C.; nonspecific binding with 1 μM haloperidol. The procedure:
Brain membrane preparation and binding assays for the σ1-receptor were performed as described (DeHaven-Hudkins, D. L., L. C. Fleissner, and F. Y. Ford-Rice, 1992, Characterization of the binding of [^3H](+)pentazocine to σ recognition sites in guinea pig brain, Eur. J. Pharmacol. 227, 371-378) with some modifications. Guinea pig brains were homogenized in 10 vols. (w/v) of Tris-HCl 50 mM 0.32 M sucrose, pH 7.4, with a Kinematica Polytron PT 3000 at 15000 r.p.m. for 30 s. The homogenate was centrifuged at 1000 g for 10 min at 4° C. and the supernatants collected and centrifuged again at 48000 g for 15 min at 4° C. The pellet was resuspended in 10 volumes of Tris-HCl buffer (50 mM, pH 7.4), incubated at 37° C. for 30 min, and centrifuged at 48000 g for 20 min at 4° C. Following this, the pellet was re-suspended in fresh Tris-HCl buffer (50 mM, pH 7.4) and stored on ice until use.
The radioligand used was [^3H]-(+)-pentazocine at 5.0 nM and the final volume was 200 μl. The incubation was initiated with the addition of 100 μl of membrane at a final tissue concentration of approximately 5 mg tissue net weight/mL and the incubation time was 150 m. at 37° C. After incubation, the membranes were collected onto pretreated glass fiber filterplate (MultiScreen-FC, Millipore), with polyethylenimine 0.1%. The filters were washed two times with 200 μl of washing buffer (50 mM Tris Cl, pH=7.4) and then 25 μl of Ecoscint H liquid scintillation cocktail were added. Microplates were allowed to set for several hours and then quantified by liquid scintillation spectrophotometry (1450 Microbeta, Wallac). Nonspecific binding was determined with 1 μM haloperidol.
In the case of `c1c(OCCCCN2CCCCC2)nn2c1CCCC2` [Example 60, 2-(4-(piperidin-1-yl)butoxy)-4,5,6,7-tetrahydropyrazolo[1,5-a]pyridine oxalate], affinity was put at a Ki of 40.7 nM.

Consider `c1c(OCCCCN2CCCC2)nn2c1CCCC2` [Example 59, 2-(4-(pyrrolidin-1-yl)butoxy)-4,5,6,7-tetrahydropyrazolo[1,5-a]pyridine oxalate], for which affinity was put at a Ki of 167 nM.

Compound `CN(CCOc1cc2n(n1)CCCC2)Cc1ccccc1` [Example 64, N-benzyl-N-methyl-2-(4,5,6,7-tetrahydropyrazolo[1,5-a]pyridin-2-yloxy)ethanamine oxalate] displayed an inhibition constant (Ki) of 15.4 nM.

As for `CN(CCCCOc1cc2ccccn2n1)Cc1ccncc1` [Example 32, N-methyl-4-(pyrazolo[1,5-a]pyridin-2-yloxy)-N-(pyridin-4-ylmethyl)butan-1-amine dihydrochloride], the affinity corresponds to a Ki of 14.5 nM.

`c1ccc2c(c1)COC21CCN(CCOc2cc3ccccn3n2)CC1` [Example 48, 1′-(2-(pyrazolo[1,5-a]pyridin-2-yloxy)ethyl)-3H-spiro[isobenzofuran-1,4′-piperidine] dimaleate] registered a Ki of 15.8 nM.

Regarding `CN(CCCCOc1cc2n(n1)CCCC2)Cc1ccccc1` [Example 82, N-benzyl-N-methyl-4-(4,5,6,7-tetrahydropyrazolo[1,5-a]pyridin-2-yloxy)butan-1-amine maleate], the Ki worked out at 8.1 nM.

Consider `CN(CCCCOc1cc2n(n1)CCCC2)C1CCN(Cc2ccccc2)CC1` [Example 67, 1-benzyl-N-methyl-N-(4-(4,5,6,7-tetrahydropyrazolo[1,5-a]pyridin-2-yloxy)butyl)piperidin-4-amine dimaleate], for which the Ki came to 65.7 nM.

`CCN1CCN(CCCCOc2cc3n(n2)CCCC3)CC1` [Example 98, 2-(4-(4-ethylpiperazin-1-yl)butoxy)-4,5,6,7-tetrahydropyrazolo[1,5-a]pyridine maleate] came in with a Ki of 138 nM.

Regarding `c1c(OCCCCN2CCCCCC2)nn2c1CCCC2` [Example 78, 2-(4-(azepan-1-yl)butoxy)-4,5,6,7-tetrahydropyrazolo[1,5-a]pyridine maleate], the affinity, expressed as Ki, was 26.1 nM.

Take `CCCN(CCCCOCc1cc2ccccn2n1)CC1CC1` [Example 3, N-(cyclopropylmethyl)-N-propyl-4-(pyrazolo[1,5-a]pyridin-2-ylmethylpyrazolo[1,5-a]pyridin-2-ylmethoxy)butan-1-amine maleate]: the inhibition constant (Ki) worked out at 90.1 nM.

`c1c(OCCN2CCN(C3CCCCC3)CC2)nn2c1CCCC2` [Example 71, 2-(2-(4-cyclohexylpiperazin-1-yl)ethoxy)-4,5,6,7-tetrahydropyrazolo[1,5-a]pyridine maleate] displayed a Ki of 39.3 nM.

As to `CN(CCOc1cc2ccccn2n1)C1CCN(Cc2ccccc2)CC1` [Example 41, 1-benzyl-N-methyl-N-(2-(pyrazolo[1,5-a]pyridin-2-yloxy)ethyl)piperidin-4-amine dimaleate], affinity was put at a Ki of 14.7 nM.

As for `CCCN(CCOc1cc2ccccn2n1)CC1CC1` [Example 43, N-(cyclopropylmethyl)-N-(2-(pyrazolo[1,5-a]pyridin-2-yloxy)ethyl)propan-1-amine maleate], the affinity corresponds to a Ki of 28.1 nM.

Turning to `c1c(OCCCCN2CCCOCC2)nn2c1CCCC2` [Example 89, 4-(4-(4,5,6,7-tetrahydropyrazolo[1,5-a]pyridin-2-yloxy)butyl)-1,4-oxazepane maleate], the affinity, expressed as Ki, was 10.1 nM.

As to `CC(C)N1CCN(CCCCOc2cc3n(n2)CCCC3)CC1` [Example 92, 2-(4-(4-isopropylpiperazin-1-yl)butoxy)-4,5,6,7-tetrahydropyrazolo[1,5-a]pyridine maleate], the Ki stood at 182 nM.

Regarding `c1ccc(OC2CCN(CCCCOc3cc4ccccn4n3)CC2)cc1` [Example 23, 2,(4-(4-phenoxypiperidin-1-yl)butoxy)pyrazolo[1,5-a]pyridine oxalate], the affinity, expressed as Ki, was 30.1 nM.

As to `c1ccn2nc(OCCCCN3CCC4CCCCC4C3)cc2c1` (stereo not shown) [Example 34, 2-(4-(pyrazolo[1,5-a]pyridin-2-yloxy)butyl)decahydroisoquinoline fumarate], the inhibition constant Ki amounted to 5.7 nM.

The compound `c1ccn2nc(COCCCCN3CCCCCC3)cc2c1` [Example 8, 2-((4-(azepan-1-yl)butoxy)methyl)pyrazolo[1,5-a]pyridine maleate] yielded a Ki of 22.2 nM.

`c1c(OCCCCN2CCC3CCCCC3C2)nn2c1CCCC2` (stereo not shown) [Example 68, 2-(4-(4,5,6,7-tetrahydropyrazolo[1,5-a]pyridin-2-yloxy)butyl)decahydroisoquinoline maleate] had a Ki of 7.3 nM.

Regarding `CC(C)(C)C1CCN(CCOc2cc3n(n2)CCCC3)CC1` [Example 66, 2-(2-(4-tert-butylpiperidin-1-yl)ethoxy)-4,5,6,7-tetrahydropyrazolo[1,5-a]pyridine maleate], the inhibitory constant (Ki) amounted to 5.5 nM.

Turning to `CC(C)(C)C1CCN(CCCCOCc2cc3ccccn3n2)CC1` [Example 1, 2-((4-(4-tert-butylpiperidin-1-yl)butoxy)methyl)pyrazolo[1,5-a]pyridine maleate], the Ki was 16.3 nM.

`CC(C)N1CCN(CCOc2cc3n(n2)CCCC3)CC1` [Example 91, 2-(2-(4-isopropylpiperazin-1-yl)ethoxy)-4,5,6,7-tetrahydropyrazolo[1,5-a]pyridine maleate] showed a Ki of 195 nM.

With `c1ccc2c(c1)COC21CCN(CCOc2cc3n(n2)CCCC3)CC1` [Example 74, 1′-(2-(4,5,6,7-tetrahydropyrazolo[1,5-a]pyridin-2-yloxy)ethyl)-3H-spiro[isobenzofuran-1,4′-piperidine]maleate], the Ki amounted to 30.6 nM.

`CC(C)(C)C1CCN(CCCCOc2cc3ccccn3n2)CC1` [Example 30, 2-(4-(4-tert-butylpiperidin-1-yl)butoxy)pyrazolo[1,5-a]pyridine hydrochloride] registered a Ki of 6.2 nM.

As for `c1c(OCCCCNC23CC4CC(CC(C4)C2)C3)nn2c1CCCC2` [Example 83, N-adamantyl-4-(4,5,6,7-tetrahydropyrazolo[1,5-a]pyridin-2-yloxy)butan-1-amine maleate], the Ki worked out at 34.8 nM.

As to `c1ccn2nc(OCCCCNC34CC5CC(CC(C5)C3)C4)cc2c1` [Example 37, N-adamantyl-4-(pyrazolo[1,5-a]pyridin-2-yloxy)-butan-1-amine maleate], the Ki was 14.2 nM.

Take `CN1CCCN(CCCCOc2cc3n(n2)CCCC3)CC1` [Example 96, 2-(4-(4-methyl-1,4-diazepan-1-yl)butoxy)-4,5,6,7-tetrahydropyrazolo[1,5-a]pyridine maleate]: the Ki turned out to be 180 nM.

The compound `c1c(OCCCCN2CCCCC2)nn2c1CCCC2` [Example 61, 2-(4-(piperidin-1-yl)butoxy)-4,5,6,7-tetrahydropyrazolo[1,5-a]pyridine maleate] yielded a Ki of 28.5 nM.

In turn, `c1ccc(C2CCN(CCCCOc3cc4n(n3)CCCC4)CC2)cc1` [Example 63, 2-(4-(4-phenylpiperidin-1-yl)butoxy)-4,5,6,7-tetrahydropyrazolo[1,5-a]pyridine oxalate] yielded a Ki of 9.2 nM.

As for `CN(CCCCOc1cc2ccccn2n1)Cc1ccccc1` [Example 22, N-benzyl-N-methyl-4-(pyrazolo[1,5-a]pyridin-2-yloxy)butan-1-amine oxalate], the Ki was found to be 3.6 nM.

Take `CN(CCOc1cc2ccccn2n1)CCc1ccccc1` [Example 40, N-methyl-N-phenethyl-2-(pyrazolo[1,5-a]pyridin-2-yloxy)ethanamine maleate]: the affinity, expressed as Ki, was 41.1 nM.

For `c1ccn2nc(COCCN3CCCCCC3)cc2c1` [Example 2, 2-((2-(azepan-1-yl)ethoxy)methyl)pyrazolo[1,5-a]pyridine maleate], the inhibition constant (Ki) stood at 37.6 nM.

With `c1ccc2c(c1)CCN(CCCCOCc1cc3ccccn3n1)C2` [Example 4, maleate], the inhibitory constant (Ki) is 48 nM.

`c1c(OCCCN2CCN(C3CCCCC3)CC2)nn2c1CCCC2` [Example 100, 2-(3-(4-cyclohexylpiperazin-1-yl)propoxy)-4,5,6,7-tetrahydropyrazolo[1,5-a]pyridine maleate]: the Ki amounted to 37.1 nM.

`c1c(OCCN2CC[C@H]3CCCC[C@@H]3C2)nn2c1CCCC2` [Example 87, (4aR,8aS)-2-(2-(4,5,6,7-tetrahydropyrazolo[1,5-a]pyridin-2-yloxy)ethyl)decahydroisoquinoline maleate] gave a Ki of 3.3 nM.

As to `CN1CCN(CCCCOc2cc3n(n2)CCCC3)CC1` [Example 93, 2-(4-(4-methylpiperazin-1-yl)butoxy)-4,5,6,7-tetrahydropyrazolo[1,5-a]pyridine maleate], the inhibition constant Ki was found to be 167 nM.

`c1ccc2c(c1)CCN(CCCCOc1cc3ccccn3n1)C2` [Example 36, 2-(4-(pyrazolo[1,5-a]pyridin-2-yloxy)butyl)-1,2,3,4-tetrahydroisoquinoline maleate] gave a Ki of 20 nM.

Broadly, the Ki is a measure of affinity in units of concentration, obtained from inhibition or displacement. Lower therefore signals a stronger hold on the target.
